Entries after “also recorded” stand apart in the source; their conditions may differ.
What was measured:
PRL-1 = molecular target: T1, PRL-1 (Homo sapiens, UniProt Q93096); assay: In vitro PTPase assay, recombinant PRL-1; type: biochemical; conditions: 0.1-100 μg/ml
T1 construct: made in house; host or cells: E. coli DH5a
Source text: (§1) Sodium stibogluconate, suramin, sodium orthovanadate and GST fusion protein of SHP-1 have been described previously (Pathak et al., J. Imumol. 167, 3391 (2001)). Meglumine antimonate was obtained from Aventis. cDNAs of human PRL-1, PRL-2 and PRL-3 coding region were derived by RT-PCR from H9 cells (Safai, et al., Lancet 1, 1438 (1984)) and inserted in frame into the pGEX vector. cDNA of PRL-1R86 was generated by recombinant DNA technique using PRL-1 cDNA as template following established procedures (Jiao, et al., Mol. Cell. Biol. 16, 6985 (1996)). […]
(§2) In vitro PTPase assays were used to determine the effects of compounds on recombinant PTPases, following established procedures using a synthetic phosphotyrosine peptide or DiFMUP as the substrate (Pathak et al., J. Imumol. 167, 3391 (2001)). […] PTPase activity of individual reactions was measured by adding 100 µL of malachite green solution (UBI) and then quantifying the amounts of free phosphate cleaved by the PTPase from the peptide substrate by spectrometry (OD660 nm). […] Relative PTPase activities were calculated based on the formula: (PTPase activity in the presence of an inhibitory compound/PTPase activity in the absence of the compound)× 100%. […]

PRL-2 = molecular target: T2, PRL-2 (Homo sapiens, UniProt Q12974); assay: In vitro PTPase assay, recombinant PRL-2; type: biochemical
T2 construct: made in house; host or cells: E. coli DH5a
T2 sequence (Q12974 whole entry): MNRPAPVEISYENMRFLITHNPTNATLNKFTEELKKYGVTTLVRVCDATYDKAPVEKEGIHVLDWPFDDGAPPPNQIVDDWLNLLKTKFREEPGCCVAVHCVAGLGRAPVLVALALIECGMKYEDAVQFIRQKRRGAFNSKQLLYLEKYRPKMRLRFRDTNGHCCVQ
Source text: as §1, §2

GSTm8 = assay: In vitro PTPase assay, GSTm8; type: biochemical; conditions: 3-4 μg/ml or 10-100 μg/ml
Source text: In vitro PTPase assays were used to determine the effects of levamisole (Sigma), pentamidine (American Pharmaceutical Partners, Inc.), and ketoconazole (Sigma) on recombinant PTPases, following established procedures (Pathak et al., J. Imumol. 167, 3391 (2001); Pathak et al., Leukemia 16, 2285 (2002), Yi et al., J. Immunol. 169, 5978 (2002)) using a synthetic phosphotyrosine peptide or DiFMUP as the substrate as detailed above in section I.A.2.

MDA231 cells = assay: MDA231 breast cancer cell growth, MTT assay; type: cell-based, human; conditions: single agent, 50 μg/ml and 100 μg/ml
Description: (§3) For cell proliferation assays, cells were grown in 10% FCS culture medium containing various amounts of IFNs and/or sodium stibogluconate in 96 well plates and cultured at 37° C. for 3 or 6 days as indicated. The numbers of viable cells in proliferation assays were determined by MTT assays as described in Phatak et al., J. Immunol. 167, 3391 (2001).

DU145 cells = assay: DU145 prostate cancer cell growth, MTT assay; type: cell-based, human; conditions: single agent, 50 μg/ml and 100 μg/ml
Description: as §3
NIH3T3 (Yi, et al., Blood 85, 87 (1995)), WM9 (Forsberg, et al., Proc. Nat. Acad. Sci. USA 90, 393 (1993)), DU145 (Mickey, et al., Cancer Res. 37, 4049 (1977)), LoVo (Drewinko, et al., Cancer Res. 36, 467 (1976)), HEY (Buick, et al., Cancer Res. 45, 3668 (1985)), U251 (Yoshida, et al., Cancer 50, 410 (1982)), A549 (Giard, et al., J. Natl. Cancer Inst. 51, 1417 (1973)) and SK-N-SH (Helson, et al., Cancer Res. 35, 2594 (1975)) cell lines have been described and were cultured in RPMI 1640 supplemented with 10% fetal calf serum (FCS). For measurement of sodium stibogluconate effects on cell growth in vitro, cells were cultured in the absence (−) or presence (+) of various amounts of sodium stibogluconate for 6 days with viable cells quantified by MTT assays (Mosmann, J. Immunol. Methods 65, 55 (1983)). Percentages of growth inhibition by sodium stibogluconate were calculated (.+−.x %).

Jurkat cells = assay: IFN-gamma secretion by Jurkat cells, ELISA; type: cell-based, human; conditions: 16 hrs
Description: Jurkat cells were cultured in the absence or presence of various amounts of SSG for 16 hours. The cells and culture medium supernatants were separated by centrifugation (1,000 g, 10 min). The amounts of IFN-gamma in the culture medium supernatants were quantified using an ELISA kit (R.D. system, Minneapolis, Minn.) following the manufacturer's protocol.

T1 sequence (Q93096 whole entry): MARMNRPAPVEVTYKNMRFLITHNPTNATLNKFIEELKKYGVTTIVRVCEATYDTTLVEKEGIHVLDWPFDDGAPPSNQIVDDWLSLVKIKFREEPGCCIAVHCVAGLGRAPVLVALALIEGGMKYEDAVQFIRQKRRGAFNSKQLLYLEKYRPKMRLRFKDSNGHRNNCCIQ

Row | SMILES | PRL-1 activity retained (PRL-1) | effectiveness against PRL-2 (PRL-2) | inhibitory activity against GSTm8 (GSTm8) | MDA231 cells in day 6 culture (MDA231 cells) | DU145 cells in day 6 culture (DU145 cells) | IFN-gamma secretion by Jurkat T cells (Jurkat cells)
1 | CC(=O)N1CCN(c2ccc(OCC3COC(Cn4ccnc4)(c4ccc(Cl)cc4Cl)O3)cc2)CC1 (stereo not drawn) [ketoconazole] | 60-70% | not effective | no obvious inhibitory activity | – | – | –
2 | N=C(N)c1ccc(OCCCCCOc2ccc(C(=N)N)cc2)cc1 [pentamidine] | 70-80% | not effective | no obvious inhibitory activity | – | – | –
3 | O.O.O.O.O.O.O.O.O.O=C([O-])[C@@H]1[O][Sb]2([O-])([O][Sb]34([OH])[O][C@H]([C@H](O)CO)[C@H]([O]3)[C@H](C(=O)[O-])[O]4)[O][C@H]([C@H](O)CO)[C@@H]1[O]2.[Na+].[Na+].[Na+] [sodium stibogluconate] | – | – | – | killed all cells; also recorded: complete or near complete killing | killed all cells; also recorded: complete or near complete killing | increased amounts of IFN-gamma

Reference: US20080089860A1, “Therapeutic compositions and methods useful in treating cancer” (priority 2006, published 2008)
